Measured values: patent publication US9333202B2, “Non-retinoid antagonists for treatment of age-related macular degeneration and stargardt disease” (THE TRUSTEES OF COLUMBIA UNIVERSITY IN THE CITY OF NEW YORK, priority 2012, dated 2016)
“Also recorded” adds a separate entry of the source.

Experiments:
RBP4-TTR interaction = RBP4-TTR interaction (Homo sapiens, UniProt P02753); assay: HTRF/TR-FRET assay for retinol-dependent RBP4-TTR interaction (1 μM retinol); format: biochemical; set-up: human RBP4 fragment (amino acids 19-201) was expressed in the Gold(DE3)pLysS E. coli strain; made in house; host or cells: E. coli Gold(DE3)pLysS (Stratagene), pMAL-c4x vector; conditions: for IC50: in the presence of 1 μM retinol, each value one experiment, read-out: IC50 in HTRF-based retinol-dependent RBP4-TTR interaction assay
Description: Bacterially expressed MBP-RBP4 and untagged TTR were used in this assay. For the use in the TR-FRET assay the maltose binding protein (MBP)-tagged human RBP4 fragment (amino acids 19-201) was expressed in the Gold(DE3)pLysS E. coli strain (Stratagene) using the […] vector. Following cell lysis, recombinant RBP4 was purified from the soluble fraction using the ACTA FPLC system (GE Healthcare) equipped with the 5-ml the MBP Trap HP column. Human untagged TTR was purchased from Calbiochem. Untagged TTR was labeled directly with Eu^3+ Cryptate-NHS using the HTRF Cryptate Labeling kit from CisBio following the manufacturer's recommendations. HTRF assay was performed in white low volume 384 well plates (Greiner-Bio) in a final assay volume of 16 μl per well. The reaction buffer contained 10 mM Tris-HCl pH 7.5, 1 mM DTT, 0.05% NP-40, 0.05% Prionex, 6% glycerol, and 400 mM KF. Each reaction contained 60 nM MBP-RBP4 and 2 nM TTR-Eu along with 26.7 nM of anti-MBP antibody conjugated with d2 (Cisbio). Titration of test compounds in this assay was conducted in the presence of 1 μM retinol. All reactions were assembled in the dark under dim red light and incubated overnight at +4° C. wrapped in aluminum foil. TR-FRET signal was measured in the SpectraMax M5e Multimode Plate Reader (Molecular Device). Fluorescence was excited at 337 nm and two readings per well were taken: Reading 1 for time-gated energy transfer from Eu(K) to d2 (337 nm excitation, 668 nm emission, counting delay 75 microseconds, counting window 100 microseconds) and Reading 2 for Eu(K) time-gated fluorescence (337 nm excitation, 620 nm emission, counting delay 400 microseconds, counting window 400 microseconds). The TR-FRET signal was expressed as the ratio of fluorescence intensity: Flu665/Flu620×10,000.

human RBP4 = target: T1, human RBP4 (Homo sapiens, UniProt P02753); assay: Scintillation proximity (SPA) RBP4 binding assay; conditions: for IC50: 10 nM 3H-retinol, 50 nM biotinylated RBP4, each value one experiment, read-out: IC50 in SPA-based RBP4 binding assay
T1 construct: Untagged human RBP4 purified from urine of tubular proteinuria patients; purchased Fitzgerald Industries International; host or cells: human urine (tubular proteinuria patients)
Description: Untagged human RBP4 purified from urine of tubular proteinuria patients was purchased from Fitzgerald Industries International. It was biotinylated using the EZ-Link Sulfo-NHS-LC-Biotinylation kit from Pierce following the manufacturer's recommendations. Binding experiments were performed in 96-well plates (OptiPlate, PerkinElmer) in a final assay volume of 100 μl per well in SPA buffer (1×PBS, pH 7.4, 1 mM EDTA, 0.1% BSA, 0.5% CHAPS). The reaction mix contained 10 nM ^3H-Retinol (48.7 Ci/mmol; PerkinElmer), 0.3 mg/well Streptavidin-PVT beads, 50 nM biotinylated RBP4 and a test compound. Nonspecific binding was determined in the presence of 20 μM of unlabeled retinol. The reaction mix was assembled in the dark under dim red light. The plates were sealed with clear tape (TopSeal-A: 96-well microplate, PerkinElmer), wrapped in the aluminum foil, and allowed to equilibrate 6 hours at room temperature followed by overnight incubation at +4° C. Radiocounts were measured using a TopCount NXT counter (Packard Instrument Company).

| Compound | Antagonism of RBP4-TTR interaction in vitro (in words) (RBP4-TTR interaction) | also measured |
| --- | --- | --- |
| FC(F)(F)c1cccc(CCN2CCN(c3ncccc3C(F)(F)F)CC2)c1 [Compound 17] | antagonize RBP4-TTR interaction in vitro at biologically significant concentrations |  |
| FC(F)(F)c1cccc(CCN2CCN(c3ncnc4sc5c(c34)CCC5)CC2)c1 [Compound 20] | antagonize RBP4-TTR interaction in vitro at biologically significant concentrations |  |
| FC(F)(F)c1cccc(CN2CCN(c3ncnc4sc5c(c34)CCC5)CC2)c1 [Compound 21] | antagonize RBP4-TTR interaction in vitro at biologically significant concentrations |  |
| O=C(Cc1ccccc1C(F)(F)F)N1CCN(c2ncnc3sc4c(c23)CCC4)CC1 [Compound 22] | antagonize RBP4-TTR interaction in vitro at biologically significant concentrations |  |
| O=C(c1ccc(C(F)(F)F)cc1F)N1CCC(c2ccccc2C(F)(F)F)CC1 [Compound 32] | antagonize RBP4-TTR interaction in vitro at biologically significant concentrations |  |
| O=C(c1ccc(C(F)(F)F)c(F)c1)N1CCC(c2ccccc2C(F)(F)F)CC1 [Compound 33] | antagonize RBP4-TTR interaction in vitro at biologically significant concentrations |  |
| O=C(c1cccc(C(F)(F)F)c1)N1CCC(c2ccccc2C(F)(F)F)CC1 [Compound 34] | antagonize RBP4-TTR interaction in vitro at biologically significant concentrations |  |
| O=C(c1ccc(F)c(C(F)(F)F)c1)N1CCC(c2ccccc2C(F)(F)F)CC1 [Compound 35] | antagonize RBP4-TTR interaction in vitro at biologically significant concentrations |  |
| O=C(c1ccc(Cl)c(C(F)(F)F)c1)N1CCC(c2ccccc2C(F)(F)F)CC1 [Compound 36] | antagonize RBP4-TTR interaction in vitro at biologically significant concentrations |  |
| COC(=O)c1cccc(C(=O)N2CCC(c3ccccc3C(F)(F)F)CC2)c1 [Compound 37] | antagonize RBP4-TTR interaction in vitro at biologically significant concentrations |  |
| O=C(Cc1ccccc1C(F)(F)F)N1CCC(c2ccccc2C(F)(F)F)CC1 [Compound 38] | antagonize RBP4-TTR interaction in vitro at biologically significant concentrations |  |
| O=C(c1ccnc(C(F)(F)F)c1)N1CCC(c2ccccc2C(F)(F)F)CC1 [Compound 39] | antagonize RBP4-TTR interaction in vitro at biologically significant concentrations |  |
| O=C(c1cnccc1C(F)(F)F)N1CCC(c2ccccc2C(F)(F)F)CC1 [Compound 40] | antagonize RBP4-TTR interaction in vitro at biologically significant concentrations |  |
| O=C(c1cc(C(F)(F)F)ccn1)N1CCC(c2ccccc2C(F)(F)F)CC1 [Compound 41] | antagonize RBP4-TTR interaction in vitro at biologically significant concentrations |  |
| FC(F)(F)c1ccccc1C1CCN(c2ncccn2)CC1 [Compound 42] | antagonize RBP4-TTR interaction in vitro at biologically significant concentrations |  |
| Cc1ccnc(N2CCC(c3ccccc3C(F)(F)F)CC2)n1 [Compound 43] | antagonize RBP4-TTR interaction in vitro at biologically significant concentrations |  |
| FC(F)(F)c1ccnc(N2CCC(c3ccccc3C(F)(F)F)CC2)n1 [Compound 44] | antagonize RBP4-TTR interaction in vitro at biologically significant concentrations |  |
| COC(=O)c1cc(C)nc(N2CCC(c3ccccc3C(F)(F)F)CC2)n1 [Compound 45] | antagonize RBP4-TTR interaction in vitro at biologically significant concentrations |  |

| Compound | Antagonism of RBP4-TTR interaction in vitro (in words) (RBP4-TTR interaction) | also measured |
| --- | --- | --- |
| FC(F)(F)c1ccccc1C1CCN(c2nccc(-c3ccccc3)n2)CC1 [Compound 46] | antagonize RBP4-TTR interaction in vitro at biologically significant concentrations |  |
| Fc1cnc(N2CCC(c3ccccc3C(F)(F)F)CC2)nc1 [Compound 47] | antagonize RBP4-TTR interaction in vitro at biologically significant concentrations |  |
| O=C(c1c[nH]cn1)N1CCC(c2ccccc2C(F)(F)F)CC1 [Compound 48] | antagonize retinol-dependent RBP4-TTR interaction | Binding to RBP4 in vitro (in words) (human RBP4): bind to RBP4; IC50 (human RBP4): 5.68 nM; IC50 (RBP4-TTR interaction): 106 nM |
| Cn1cnc(C(=O)N2CCC(c3ccccc3C(F)(F)F)CC2)c1 [Compound 49] | antagonize RBP4-TTR interaction in vitro at biologically significant concentrations |  |
| O=C(c1cn(Cc2ccccc2)cn1)N1CCC(c2ccccc2C(F)(F)F)CC1 [Compound 50] | antagonize RBP4-TTR interaction in vitro at biologically significant concentrations |  |
| Cn1cncc1C(=O)N1CCC(c2ccccc2C(F)(F)F)CC1 [Compound 51] | antagonize RBP4-TTR interaction in vitro at biologically significant concentrations |  |
| Cn1nc(C(F)(F)F)cc1C(=O)N1CCC(c2ccccc2C(F)(F)F)CC1 [Compound 52] | antagonize RBP4-TTR interaction in vitro at biologically significant concentrations |  |
| O=C(c1cc(C(F)(F)F)[nH]n1)N1CCC(c2ccccc2C(F)(F)F)CC1 [Compound 53] | antagonize RBP4-TTR interaction in vitro at biologically significant concentrations |  |
| O=C(c1nccs1)N1CCC(c2ccccc2C(F)(F)F)CC1 [Compound 54] | antagonize RBP4-TTR interaction in vitro at biologically significant concentrations |  |
| O=C(c1ccco1)N1CCC(c2ccccc2C(F)(F)F)CC1 [Compound 55] | antagonize RBP4-TTR interaction in vitro at biologically significant concentrations |  |
| O=C(O)c1cc(-c2ccccc2)ccc1NC(=O)N1CCC(c2ccccc2C(F)(F)F)CC1 [Compound 56] | antagonize RBP4-TTR interaction in vitro at biologically significant concentrations |  |
| O=C(O)c1cc(-c2ccc(F)cc2)ccc1NC(=O)N1CCC(c2ccccc2C(F)(F)F)CC1 [Compound 57] | antagonize RBP4-TTR interaction in vitro at biologically significant concentrations |  |
| CS(=O)(=O)c1ccc(-c2ccc(NC(=O)N3CCC(c4ccccc4C(F)(F)F)CC3)c(C(=O)O)c2)cc1 [Compound 58] | antagonize RBP4-TTR interaction in vitro at biologically significant concentrations |  |
| COC(=O)c1ccccc1NC(=O)N1CCC(c2ccccc2C(F)(F)F)CC1 [Compound 59] | antagonize RBP4-TTR interaction in vitro at biologically significant concentrations |  |
| COC(=O)c1ccc(Cl)cc1NC(=O)N1CCC(c2ccccc2C(F)(F)F)CC1 [Compound 60] | antagonize RBP4-TTR interaction in vitro at biologically significant concentrations |  |
| COC(=O)c1cc(Br)ccc1NC(=O)N1CCC(c2ccccc2C(F)(F)F)CC1 [Compound 61] | antagonize RBP4-TTR interaction in vitro at biologically significant concentrations |  |
| O=C(O)c1ccccc1NC(=O)N1CCN(c2ncncc2C(F)(F)F)CC1 [Compound 63] | antagonize RBP4-TTR interaction in vitro at biologically significant concentrations |  |
| CS(=O)(=O)c1ccc(NC(=O)N2CCC(c3ccccc3C(F)(F)F)CC2)c(C(=O)O)c1 [Compound 64] | antagonize retinol-dependent RBP4-TTR interaction; also recorded: antagonize RBP4-TTR interaction in vitro at biologically significant concentrations | Binding to RBP4 in vitro (in words) (human RBP4): bind to RBP4; IC50 (human RBP4): 49.8 nM; IC50 (RBP4-TTR interaction): 1270 nM |
